This note sets out measurements from US20070014727A1, “Contrast media for nuclear spin tomography with use of the overhauser effect” (priority 2005, published 2007).

Holding throughout (format): physicochemical
A short description of data set [1]: EPR measurement of oxygen sensitivity (EPR line widening after flushing with oxygen). Particulars: for widening of the EPR line after the solution is flushed with oxygen: in toluene, reversible.
Data set [2] is described as follows: Relaxometric measurement of proton relaxivity. Particulars: aqueous solution, spin concentration 6 μm, 37° C., about 15 mT (600 kHz). As for the experimental part:
Substance (III) has a relaxivity r1≅47 mM^−1s^−1 (compared to the trityl derivatives with relaxivity values of between 0.14 mM^−1s^−1 and 0.44 mM^−1s^−1 [ii], and [iii]) in aqueous solution with a spin concentration of 6 μm at a solvent temperature of 37° C. This unexpectedly high value is present at a magnetic field strength of about 15 mT, which corresponds to a radiofrequency of 600 kHz and thus to the conditions of very low magnetic field strength that are necessary for OMRI.

Data set [3] in a line: Electron spin relaxation times by pulsed spin-echo EPR (X-band) and CW EPR line widths (L-band) in liquid solution. Particulars: pulsed spin-echo EPR in X-band (9.5 GHz), CW EPR line widths in L-band (1.1 GHz). From the text: The substance N@C63(COOH)6 (III) according to the invention has long spin-relaxation times of the unpaired electron. It was possible to measure very long electronic relaxation times T1e≅150 μs and T2e≅22 μs in liquid solution, which are longer by at least one order of magnitude than that of the […], (see FIG. 4) with pulsed spin-echo EPR measurements in X-band (9.5 GHz EPR larmor frequency) and from CW EPR line widths in the L-band (1.1 GHz of EPR larmor frequency). From [ii] Table 3, page 8, in isotonic NaCl solution at 37° C.: “predeuterated trityl”: T1e≅13 μs, T2e≅8 μs; “deuterated hydroxy trityl”: T1e≅11 μs, T2e≅8 μs, “symmetrical trityl”: T1e≅9 μs, T2e≅9 μs.

For N@C60 [I], in data set [1], the oxygen-sensitivity result was “low” and the “widening of the EPR line after the solution is flushed with oxygen” value is on record as “does not occur”.

As for N@C63 (COONa)6 [III], the “relaxivity r1” value in data set [2] was roughly 47 mM⁻¹ s⁻¹. Also, in data set [3], the “electronic relaxation time T1e” value was roughly 150 μs and the “electronic relaxation time T2e” value was roughly 22 μs.

In the case of P@C60 [IX], in data set [1], the oxygen-sensitivity entry was “elevated” and the “widening of the EPR line after the solution is flushed with oxygen” value turned out to be 20 ×.
